Measured values published in patent publication US20170224654A1, “PHARMACEUTICAL COMPOSITIONS AND METHODS FOR COUNTERING CHEMOTHERAPY INDUCED CARDIOTOXICITY” (Stem Cell Theranostics, Inc., priority 2016, published 2017).

What was measured:
[1] = tested on: MDA-MB-231 breast cancer cells; test: Cell viability with doxorubicin (CellTiter-Glo); assay type: cell-based; settings: co-treated with increasing concentrations of doxorubicin, 72 hours
[2] = tested on: cardiomyocytes derived from human induced pluripotent stem cells; test: Doxorubicin-induced apoptosis (TUNEL), 48 hours; assay type: cell-based; settings: 1 μM doxorubicin, VIT 115 μM, Dex 160 μM, AMB 0.76 μM, NAC 50 μM, KAE 17 μM, MES 10 μM
Protocol: Following treatment, the samples were incubated with a TUNEL dye to indicate apoptosis-positive cells, and a second dye to identify cell nuclei.

[3] = tested on: human induced pluripotent stem cell-derived cardiomyocytes; test: Long-term mitochondrial health (TMRM), 7 days; assay type: cell-based; settings: 1 μM doxorubicin alone or with dexrazoxane or vitexin
Protocol: Following treatment, the samples were incubated with a tetramethylrhodamine methyl ester (TMRM) dye to indicate mitochondrial health. […] Representative images are presented for each sample, wherein loss of TMRM signal represents mitochondrial toxicity.

[4] = tested on: human induced pluripotent stem cell-derived cardiomyocytes; test: Electrophysiological activity with doxorubicin (active electrodes, MEA); assay type: cell-based; settings: for decrease in the number of active electrodes: 24 hours
Protocol: Samples were either mock-treated with 0.1% DMSO, treated with 1 μM doxorubicin, or co-treated with 1 μM doxorubicin and various concentrations of vitexin (e.g., 11.6 μM, 37 μM, or 116 μM). Following treatment, the percentage of active electrodes in each sample was measured for 72 hours. Percentage of active electrodes was quantified and graphed in a time course (FIG. 28A). The average number of active electrodes per well was quantified and graphed at 30 hours after the treatment (FIG. 28B, n=6, standard deviation is shown as error bars).

[5] = tested on: A549 cells (lung cancer); test: Cell viability with doxorubicin (CellTiter-Glo); assay type: cell-based; settings: co-treated with increasing concentrations of doxorubicin, 72 hours
Protocol: A549 cells (lung cancer) were cultured for 1 day before performing experiments. […] XLFit was used for curve fitting.

[6] = tested on: induced pluripotent stem cell-derived cardiomyocytes; test: Acute toxicity on electrophysiology (MEA beat period, field potential duration); assay type: cell-based; settings: lower drug concentration, at least 20 minutes
Protocol: Samples were either mock-treated with 0.1% DMSO, or treated with increasing concentrations of the indicated drug for at least 20 minutes. Cardiomyocytes were treated with the hERG potassium channel blocker E4031 as a control. Following treatment, the beat period and field potential duration (FPD) were measured in each sample using the MEA.

[7] = tested on: induced pluripotent stem cell-derived cardiomyocytes; test: Long term toxicity on electrophysiology (active electrodes, MEA); assay type: cell-based; settings: various concentrations, at least 5 days
Protocol: Samples were either mock-treated with 0.1% DMSO, or treated with various concentrations of the indicated drug. Following treatment, the percentage of active electrodes in each sample was measured for at least 5 days. Percentage of active electrodes was quantified and graphed in a time course.

[8] = tested on: patient; test: Patient treatment examples (echocardiogram / electrocardiogram); assay type: in vivo, human
Protocol: A patient, with a history of heart disease, is diagnosed with breast cancer. Due to an increased risk for heart failure, the patient is unable to receive the standard treatment regimen of doxorubicin, which is known to induce cardiotoxicity. Instead, the caregiver administers a co-formulation of doxorubicin (10 mg) and vitexin (100 mg). An echocardiogram is performed and blood flow rate is measured to determine if the therapy has a cardiotoxic effect in the patient.
A patient is diagnosed with liver cancer. […] The patient presents with a 20 ms QT prolongation. […] The patient is able to continue receiving treatment over several weeks after which a tissue biopsy is performed to confirm the liver cancer has been eradicated.
(§1) A patient is diagnosed with stage II lung cancer, and presents with bradycardia. Due to an increased risk for heart failure, the patient is unable to receive the standard treatment regimen of doxorubicin, which is known to affect cardiac contraction and induce bradycardia. Instead, the caregiver administers a co-formulation of doxorubicin (10 mg) and myricetin (100 mg). An electrocardiogram is used to monitor the patient's heart rate. […] The lung cancer is down-staged to stage 1, and the cancer is successfully removed with surgery.
as §1, with “myricetin (100 mg) 24 hours before administration” for “a co-formulation”, “(10” for “(10 mg) and myricetin (100”

O=c1cc(-c2ccc(O)cc2)oc2c([C@@H]3O[C@H](CO)[C@@H](O)[C@H](O)[C@H]3O)c(O)cc(O)c12 [vitexin]
percentage of cell death vs doxorubicin in the absence of a protective agent [1]: no significant difference | decrease in apoptosis vs doxorubicin alone [2]: at least 60% | mitochondrial toxicity / protection (TMRM-positive cells) [3]: improved long term mitochondrial protection | decrease in the number of active electrodes ([4]; 1 μM doxorubicin and 11.6 μM vitexin): ~50% | decrease in the number of active electrodes ([4]; 1 μM doxorubicin and 37 μM vitexin): ~25% | decrease in the number of active electrodes ([4]; 1 μM doxorubicin and 116 μM vitexin): ~0% | average number of active electrodes ([4]; 1 μM doxorubicin and 116 μM vitexin, 30 hours): about 10 active electrodes | percentage of cell death vs doxorubicin in the absence of a protective agent [5]: no significant difference | beat period or field potential duration, as compared to control samples [6]: no appreciable difference | number of active electrodes relative to the mock-treated sample (in words) [7]: no observable decrease | QT prolongation (in words) ([8]; doxorubicin (5 mg/mL) given with the protective agent): no signs of QT prolongation | cardiac dysfunction in the patient ([8]; protective agent 100 mg co-formulated with, or 24 hours before, doxorubicin 10 mg): no indication of cardiac dysfunction
